From BindingDB's records for doi:10.1016/j.bmc.2008.02.078 (University of Tokyo, 2008)

Target: Alpha-glucosidase MAL32 (Saccharomyces cerevisiae (strain ATCC 204508 / S288c), UniProt P38158)
Test: alpha-Glucosidase Inhibition Assay
Details: pH 7; 37 °C
Experimental: The alpha-glucosidase inhibitory activity of test compounds was determined in a 96-well plate format. The reaction mixture containing enzyme and chromogenic substrate in the presence or absence of test compounds were incubated, and the amount of released p-nitrophenol was measured based on the absorbance at 405 nm. The IC50 values were calculated from the dose-response curves.

Chain of Alpha-glucosidase MAL32 (P38158 whole entry): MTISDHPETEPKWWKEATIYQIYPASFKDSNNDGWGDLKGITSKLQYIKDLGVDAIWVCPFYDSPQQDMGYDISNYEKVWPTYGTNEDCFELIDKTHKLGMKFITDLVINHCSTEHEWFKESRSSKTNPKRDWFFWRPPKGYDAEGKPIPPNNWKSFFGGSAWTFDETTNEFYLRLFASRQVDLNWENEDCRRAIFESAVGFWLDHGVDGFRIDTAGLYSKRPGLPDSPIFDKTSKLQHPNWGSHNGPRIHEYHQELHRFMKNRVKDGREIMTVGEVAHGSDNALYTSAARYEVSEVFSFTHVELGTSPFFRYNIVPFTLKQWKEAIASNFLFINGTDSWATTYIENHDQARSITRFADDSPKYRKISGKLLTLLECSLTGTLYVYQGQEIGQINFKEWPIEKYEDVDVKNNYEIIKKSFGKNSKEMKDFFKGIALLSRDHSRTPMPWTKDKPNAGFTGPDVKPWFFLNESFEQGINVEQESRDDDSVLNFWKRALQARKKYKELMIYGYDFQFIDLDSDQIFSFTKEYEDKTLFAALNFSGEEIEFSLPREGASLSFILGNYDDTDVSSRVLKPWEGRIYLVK

Row | Structure (SMILES) | IC50 [µM]
1 | COc1ccc2c(c1)CCc1ccc(cc1)Oc1cccc(c1)CCc1ccc-2c(OC)c1 [5,25-dimethoxy-14-oxapentacyclo[20.2.2.2^{10,13}.1^{15,19}.0^{2,7}]nonacosa-1(24),2(7),3,5,10,12,15,17,19(27),22,25,28-dodecaene] | > 30
2 | COc1ccc2cc1Oc1ccc(cc1)CCc1ccccc1-c1ccc(cc1)CC2 [16-methoxy-14-oxapentacyclo[20.2.2.2^{10,13}.1^{15,19}.0^{2,7}]nonacosa-1(24),2(7),3,5,10,12,15,17,19(27),22,25,28-dodecaene] | > 100
3 | CC(C)CC[C@@H](O)[C@@H](C)[C@H]1CCC2C3CC=C4C[C@@H](O)CC[C@]4(C)C3C[C@@H](C)C21 (stereo partly drawn) [(2R,5S,14S,16R)-14-[(2S,3R)-3-hydroxy-6-methylheptan-2-yl]-2,16-dimethyltetracyclo[8.7.0.0^{2,7}.0^{11,15}]heptadec-7-en-5-ol] | 100
